Results taken from patent US11267815B2, “Class of amino-substituted nitrogen-containing fused ring compounds, preparation method therefor, and use thereof” (SHANGHAI RINGENE BIOPHARMA CO., LTD., priority 2017, dated 2022).
Like-named read-outs stand apart in the source and are kept apart here.

What was measured:
[1] = ADME tests: liver microsome metabolic stability and direct inhibition test; type: in vitro ADME; settings: metabolic stability, direct inhibition test
Method: (1) Metabolic stability test: 150 μL system of liver microsome (final concentration 0.5 mg/mL) was used for metabolic stability incubation, the system contained NADPH (final concentration 1 mM), 1 μM test compound and positive control Midazolam or negative control Atenolol, then the reaction was terminated with Tinidazole-containing acetonitrile at 0 min, 5 min, 10 min and 30 min respectively, and the mixtures were vortexed for 10 minutes and centrifuged for 10 minutes at 15000 rmp, 50 μL of the supernatants were added into 96-well plate for injection. The metabolic stability of the compounds was calculated by measuring the relative reduction of the original drug.
(2) Direct inhibition test (DI test): Direct inhibition incubation was carried out with 100 μL system of human liver microsome (final concentration 0.2 mg/mL), the system containing NADPH (final concentration 1 mM), 10 μM compound, positive inhibitor cocktail (Ketoconazole 10 μM, Quinidine 10 μM, Sulfaphenazolum 100 μM, α-Naphthoflavone 10 μM, Tranylcypromine 1000 μM), negative control (BPS containing 0.1% DMSO) and mixed probe substrates (Midazolam 10 μM, Testosterone 100 μM, Dextromethorphan […], Diclofenac 20 μM, Phenacetin 100 μM, Mephenytoin 100 μM) was incubated for 20 minutes and then the reaction was terminated. The relative activity of enzymes was calculated by measuring the relative production of metabolites.

[2] = Pharmacokinetics in rats or mice after intragastric and intravenous administration; type: in vivo, SD rats or BALB/c mice; settings: iv 3 mg/kg, intragastric 10 mg/kg
Method: (3) LC/MS/MS method was used to measure the drug concentration in plasma at different time points after the embodiment compounds were administered to the rats or mice by intragastric administration and intravenous injection respectively, so as to study the pharmacokinetic behavior of the compounds of the present disclosure in rats or mice and evaluate the pharmacokinetic characteristics thereof. […]

Hep3B cells = assay: Hep3B cell proliferation (CellTiter-Glo, 72 hours); type: cell-based; settings: Homo sapiens, Hep3B
Method: 1. Test method: inoculating Hep3B cells (ATCC) in logarithmic growth phase at an appropriate density in a 96-well culture plate, with 100 μL per well. After overnight culture, different concentrations of compounds were added to stay for 72 hours, and menstruum control group (negative control) was set, and the incubation was performed under the condition of 5% CO2 at 37° C. Adding 10 mM compound stock solution to the cells, after the cells were incubated with the compounds for 72 hours, the effects of the compounds on cell proliferation were determined by CellTiter-Glo (Promega) method. 30 μL CTG reagent was added to each well and the resulting mixtures were placed in a 37° C. incubator for 2-4 hours. Then the plate was read by a full-wavelength microplate enzyme reader Envision at a […].
The inhibition rates (%) of the compounds on tumor cell growth were calculated by the following formula: inhibition rate (%)=(OD negative control well−OD administration well)/OD negative control well×100%. IC50 values were obtained by four parameters regression using Graphpad Prism 5 software.

[3] = test system: EGFR, VEGFR, PDGFR, FGFR, RET, MET, Src, Lyn, Syk, MEK, CDK, RA, ROS; assay: Inhibitory activities on different kinases (selectivity); type: biochemical; settings: versus different kinases
Method: The inhibitory activities of the compounds of the present disclosure on different kinases such as EGFR, VEGFR, PDGFR, FGFR, RET, MET, Src, Lyn, Syk, MEK, CDK, RA, ROS, etc., were also determined.

FGFR4 = FGFR4 (Homo sapiens (Human), UniProt P22455); assay: Inhibitory activity on kinase FGFR4 (Caliper mobility shift); type: biochemical
Method: (§1) (1). Preparation of 1×Kinase buffer; (2) Preparation of the gradient concentrations of the compounds: the concentration of the compounds to be tested started from 10 μM, which was 3-fold diluted to prepare 10 dilutions, and then tested in duplicated wells. The compounds were 100-fold serially diluted into 10 dilutions with different final concentrations in 96-well plates, each of which was further diluted with 1×Kinase buffer to prepare an intermediate dilution having a concentration of 5 times the final concentration; (3) adding 5 μL of each of the prepared compound solution into the compound wells of 384-well plates, and each concentration set single well; adding 5 μL of 5% DMSO into negative control wells and positive control wells respectively; (4) preparing a kinase solution having a concentration of 2.5 times the final concentration with 1×kinase buffer; (5) adding 10 μL of kinase solution at a concentration of 2.5 times the final concentration into the compound wells and the positive control wells respectively; and adding 10 μL of 1×Kinase buffer into the negative control wells; (6) centrifuging at 1000 rpm for 30 seconds, and incubating at room temperature for 10 minutes after shaking and mixing evenly; (7) preparing a mixed solution of ATP and Kinase substrate 22 having a concentration of 2.5 times the final concentration with 1×Kinase Buffer; (8) adding 10 μL of the mixed solution of ATP and substrate at a concentration of 2.5 times the final concentration to initiate the reaction; (9) Centrifuging the 384-well plates at 1000 rpm for 30 seconds, and incubating at 28° C. for corresponding time respectively after shaking and mixing; (10) adding 30 μL of stop detection solution to stop the kinase reaction, centrifuging at 1000 rpm for 30 seconds, and shaking and mixing the mixture evenly; (11) reading the conversion rate by Caliper Ezreader II. The dose-effect curve was fitted by the log (inhibitor) vs. response-variable slope of GraphPad Prism 5 with the log value of concentration as the X axis and the percentage inhibition rate as the Y axis, then the IC50 value of each compound on the enzyme activity was obtained.

FGFR1 = FGFR1 (Homo sapiens (Human), UniProt P11362); assay: Inhibitory activity on kinase FGFR1 (Caliper mobility shift); type: biochemical
Method: as §1

FGFR1, sequence (P11362 22-822): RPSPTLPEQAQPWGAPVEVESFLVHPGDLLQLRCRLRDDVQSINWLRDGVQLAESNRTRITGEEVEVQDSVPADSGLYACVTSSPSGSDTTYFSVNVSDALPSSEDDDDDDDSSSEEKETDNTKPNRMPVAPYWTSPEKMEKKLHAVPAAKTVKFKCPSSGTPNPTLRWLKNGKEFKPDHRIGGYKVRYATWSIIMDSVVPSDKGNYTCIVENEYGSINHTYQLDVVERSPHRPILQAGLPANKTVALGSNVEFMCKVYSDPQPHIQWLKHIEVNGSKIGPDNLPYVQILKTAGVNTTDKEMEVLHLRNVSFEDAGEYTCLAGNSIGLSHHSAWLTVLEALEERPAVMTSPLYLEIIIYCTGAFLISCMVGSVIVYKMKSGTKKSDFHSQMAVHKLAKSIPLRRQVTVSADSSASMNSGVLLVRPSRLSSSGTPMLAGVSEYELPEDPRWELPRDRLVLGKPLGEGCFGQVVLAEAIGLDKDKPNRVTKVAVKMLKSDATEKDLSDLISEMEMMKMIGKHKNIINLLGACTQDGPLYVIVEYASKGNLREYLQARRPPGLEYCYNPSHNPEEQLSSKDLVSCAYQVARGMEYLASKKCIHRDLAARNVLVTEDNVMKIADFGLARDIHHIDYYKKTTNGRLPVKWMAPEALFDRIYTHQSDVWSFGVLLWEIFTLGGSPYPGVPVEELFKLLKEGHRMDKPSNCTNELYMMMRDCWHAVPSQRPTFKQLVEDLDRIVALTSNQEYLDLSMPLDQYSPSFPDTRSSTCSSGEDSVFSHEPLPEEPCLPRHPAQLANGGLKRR
FGFR4, sequence (P22455 22-802): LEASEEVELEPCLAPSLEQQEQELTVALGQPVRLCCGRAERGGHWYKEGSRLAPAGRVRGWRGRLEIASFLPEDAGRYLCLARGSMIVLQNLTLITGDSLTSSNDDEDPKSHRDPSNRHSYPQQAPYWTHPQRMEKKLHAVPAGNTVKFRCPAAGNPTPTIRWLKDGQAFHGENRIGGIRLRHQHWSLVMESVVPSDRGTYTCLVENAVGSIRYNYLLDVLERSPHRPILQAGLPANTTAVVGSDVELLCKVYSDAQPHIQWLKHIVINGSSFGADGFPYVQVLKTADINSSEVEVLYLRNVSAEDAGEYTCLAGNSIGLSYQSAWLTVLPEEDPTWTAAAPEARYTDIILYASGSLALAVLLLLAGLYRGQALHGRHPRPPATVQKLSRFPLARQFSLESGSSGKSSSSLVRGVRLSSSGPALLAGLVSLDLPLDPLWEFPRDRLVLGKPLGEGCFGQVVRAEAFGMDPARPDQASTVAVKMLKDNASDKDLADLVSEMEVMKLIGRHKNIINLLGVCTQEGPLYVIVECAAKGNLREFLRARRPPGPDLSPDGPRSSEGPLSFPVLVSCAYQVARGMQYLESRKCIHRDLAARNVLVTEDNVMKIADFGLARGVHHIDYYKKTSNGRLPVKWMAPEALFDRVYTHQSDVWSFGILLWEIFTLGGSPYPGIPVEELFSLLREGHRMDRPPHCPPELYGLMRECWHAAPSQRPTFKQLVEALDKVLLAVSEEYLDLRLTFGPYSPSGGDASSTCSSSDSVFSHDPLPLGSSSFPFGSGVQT

With `C=CC(=O)N1CCN(CCCc2cn3c(n2)c(-c2c(Cl)c(OC)cc(OC)c2Cl)cc2cnc(NC)nc23)CC1` [Embodiment 3, 1-(4-(3-(6-(2,6-dichloro-3,5-dimethoxyaniline)-2-(methylamine)imidazo[1′,2′:1,6]pyrido[2,3-d]pyrimidin-8-yl)propyl)piperazine-1-yl)prop-2-en-1-one] the ADME properties [1] was “better ADME properties”, the “absorption and metabolism properties in rats and mice” value [2] was “good absorption and metabolism properties in rats and mice” and the IC50 (Hep3B cells; read-out: Hep3B IC50) was < 0.02 µM. The IC50 (Hep3B cells; read-out: Hep3B cells inhibitory activity IC50) was < 0.01 µM, the kinase selectivity [3] was “greater than 100 times” and the IC50 (FGFR4; read-out: FGFR4 IC50) was < 0.02 µM. The IC50 (FGFR4; read-out: IC50 of inhibitory activity on FGFR4) was < 0.001 µM, the IC50 (FGFR1; read-out: FGFR1 IC50) was < 0.02 µM and the IC50 (FGFR1; read-out: IC50 of inhibitory activity on FGFR1) was < 0.001 µM.
